Test results published in article PMC12090182, “Repurposing of the RIPK1-Selective Benzo[1,4]oxazepin-4-one Scaffold for the Development of a Type III LIMK1/2 Inhibitor” (ACS Chemical Biology, 2025).

Assays:
Type in all cases: cell-based
NEK3 = NEK3 (Homo sapiens, UniProt P51956); settings: HEK-293T; 1 μM inhibitor, HEK293T cells
Outline: (§1)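 Intracellular target engagement measured by NanoBRET in HEK293T cells, with kinases expressed 20 h post-transfection. The inhibitor, at 1 μM, competed with Tracer K10 dosed per kit manual. Occupancy follows from 450 nm/610 nm emission.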

CHEK2 = CHEK2 (Homo sapiens, UniProt O96017); settings: HEK-293T; 1 μM inhibitor, HEK293T cells
Outline: as §1

CDK9 = CDK9 (Homo sapiens, UniProt P50750); settings: HEK-293T; 1 μM inhibitor, HEK293T cells
Outline: as §1

LRRK2 = LRRK2 (Homo sapiens, UniProt Q5S007); settings: HEK-293T; 1 μM inhibitor, HEK293T cells
Outline: as §1

TEC = TEC (Homo sapiens, UniProt P42680); settings: HEK-293T; 1 μM inhibitor, HEK293T cells
Outline: as §1

DCLK3 = DCLK3 (Homo sapiens, UniProt Q9C098); settings: HEK-293T; 1 μM inhibitor, HEK293T cells
Outline: as §1

SBK3 = SBK3 (Homo sapiens, UniProt P0C264); settings: HEK-293T; 1 μM inhibitor, HEK293T cells
Outline: as §1

PTK2 = PTK2 (Homo sapiens, UniProt Q05397); settings: 1 μM inhibitor, HEK293T cells
Outline: as §1

BMX = BMX (Homo sapiens, UniProt P51813); settings: HEK-293T; 1 μM inhibitor, HEK293T cells
Outline: as §1

CSNK1D = CSNK1D (Homo sapiens, UniProt P48730); settings: HEK-293T; 1 μM inhibitor, HEK293T cells
Outline: as §1

PLK2 = PLK2 (Homo sapiens, UniProt Q9NYY3); settings: HEK-293T; 1 μM inhibitor, HEK293T cells
Outline: as §1

PRKACB = PRKACB (Homo sapiens, UniProt P22694); settings: HEK-293T; 1 μM inhibitor, HEK293T cells
Outline: as §1

AKT2 = AKT2 (Homo sapiens, UniProt P31751); settings: HEK-293T; 1 μM inhibitor, HEK293T cells
Outline: as §1

CDK6 = CDK6 (Homo sapiens, UniProt Q00534); settings: HEK-293T; 1 μM inhibitor, HEK293T cells
Outline: as §1

EPHA4 = EPHA4 (Homo sapiens, UniProt P54764); settings: HEK-293T; 1 μM inhibitor, HEK293T cells
Outline: as §1

STK38L = STK38L (Homo sapiens, UniProt Q9Y2H1); settings: HEK-293T; 1 μM inhibitor, HEK293T cells
Outline: as §1

MYLK3 = MYLK3 (Homo sapiens, UniProt Q32MK0); settings: HEK-293T; 1 μM inhibitor, HEK293T cells
Outline: as §1

RPS6KA2 = RPS6KA2 (Homo sapiens, UniProt Q15349); settings: HEK-293T; 1 μM inhibitor, HEK293T cells
Outline: as §1

MAP3K11 = MAP3K11 (Homo sapiens, UniProt Q16584); settings: HEK-293T; 1 μM inhibitor, HEK293T cells
Outline: as §1

STK4 = STK4 (Homo sapiens, UniProt Q13043); settings: HEK-293T; 1 μM inhibitor, HEK293T cells
Outline: as §1

CDK15 = CDK15 (Homo sapiens, UniProt Q96Q40); settings: HEK-293T; 1 μM inhibitor, HEK293T cells
Outline: as §1

MAP3K12 = MAP3K12 (Homo sapiens, UniProt Q12852); settings: HEK-293T; 1 μM inhibitor, HEK293T cells
Outline: as §1

MAST4 = MAST4 (Homo sapiens, UniProt O15021); settings: HEK-293T; 1 μM inhibitor, HEK293T cells
Outline: as §1

IKBKE = IKBKE (Homo sapiens, UniProt Q14164); settings: HEK-293T; 1 μM inhibitor, HEK293T cells
Outline: as §1

MAP4K1 = MAP4K1 (Homo sapiens, UniProt Q92918); settings: HEK-293T; 1 μM inhibitor, HEK293T cells
Outline: as §1

STK33 = STK33 (Homo sapiens, UniProt Q9BYT3); settings: HEK-293T; 1 μM inhibitor, HEK293T cells
Outline: as §1

NTRK2 = NTRK2 (Homo sapiens, UniProt Q16620); settings: HEK-293T; 1 μM inhibitor, HEK293T cells
Outline: as §1

SIK3 FL = SIK3 FL (Homo sapiens, UniProt Q9Y2K2); settings: HEK-293T; 1 μM inhibitor, HEK293T cells
Outline: as §1

CDKL5 = CDKL5 (Homo sapiens, UniProt O76039); settings: HEK-293T; 1 μM inhibitor, HEK293T cells
Outline: as §1

ULK1 = ULK1 (Homo sapiens, UniProt O75385); settings: HEK-293T; 1 μM inhibitor, HEK293T cells
Outline: as §1

MAP3K10 = MAP3K10 (Homo sapiens, UniProt Q02779); settings: HEK-293T; 1 μM inhibitor, HEK293T cells
Outline: as §1

ULK3 = ULK3 (Homo sapiens, UniProt Q6PHR2); settings: HEK-293T; 1 μM inhibitor, HEK293T cells
Outline: as §1

MAPK8 = MAPK8 (Homo sapiens, UniProt P45983); settings: HEK-293T; 1 μM inhibitor, HEK293T cells
Outline: as §1

AAK1 = AAK1 (Homo sapiens, UniProt Q2M2I8); settings: HEK-293T; 1 μM inhibitor, HEK293T cells
Outline: as §1

PRKAA1 = PRKAA1 (Homo sapiens, UniProt Q13131); settings: HEK-293T; 1 μM inhibitor, HEK293T cells
Outline: as §1

DYRK1A = DYRK1A (Homo sapiens, UniProt Q13627); settings: HEK-293T; 1 μM inhibitor, HEK293T cells
Outline: as §1

EPHA7 = EPHA7 (Homo sapiens, UniProt Q15375); settings: HEK-293T; 1 μM inhibitor, HEK293T cells
Outline: as §1

Sequence of STK38L (Q9Y2H1 whole entry): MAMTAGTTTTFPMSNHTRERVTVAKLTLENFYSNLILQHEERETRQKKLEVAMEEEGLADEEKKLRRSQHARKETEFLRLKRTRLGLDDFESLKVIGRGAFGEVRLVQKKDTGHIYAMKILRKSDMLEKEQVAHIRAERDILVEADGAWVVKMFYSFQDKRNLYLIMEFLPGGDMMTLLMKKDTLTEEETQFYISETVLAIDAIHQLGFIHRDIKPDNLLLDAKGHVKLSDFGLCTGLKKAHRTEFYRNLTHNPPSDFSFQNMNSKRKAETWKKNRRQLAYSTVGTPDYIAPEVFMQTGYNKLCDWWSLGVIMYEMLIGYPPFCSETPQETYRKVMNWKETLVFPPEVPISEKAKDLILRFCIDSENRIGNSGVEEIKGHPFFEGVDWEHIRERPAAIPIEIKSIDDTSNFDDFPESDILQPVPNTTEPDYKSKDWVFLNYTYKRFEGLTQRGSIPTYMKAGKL
Sequence of CDK6 (Q00534 whole entry): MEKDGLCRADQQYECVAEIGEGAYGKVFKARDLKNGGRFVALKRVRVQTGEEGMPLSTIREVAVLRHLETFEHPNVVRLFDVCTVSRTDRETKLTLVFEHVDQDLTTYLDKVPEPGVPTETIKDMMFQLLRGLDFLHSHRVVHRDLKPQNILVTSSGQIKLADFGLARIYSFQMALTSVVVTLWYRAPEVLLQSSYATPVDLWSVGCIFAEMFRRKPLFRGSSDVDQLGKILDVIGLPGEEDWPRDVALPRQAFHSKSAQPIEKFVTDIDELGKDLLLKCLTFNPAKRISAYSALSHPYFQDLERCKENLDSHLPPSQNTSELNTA
Sequence of CDK6 (P24385 whole entry, further chain): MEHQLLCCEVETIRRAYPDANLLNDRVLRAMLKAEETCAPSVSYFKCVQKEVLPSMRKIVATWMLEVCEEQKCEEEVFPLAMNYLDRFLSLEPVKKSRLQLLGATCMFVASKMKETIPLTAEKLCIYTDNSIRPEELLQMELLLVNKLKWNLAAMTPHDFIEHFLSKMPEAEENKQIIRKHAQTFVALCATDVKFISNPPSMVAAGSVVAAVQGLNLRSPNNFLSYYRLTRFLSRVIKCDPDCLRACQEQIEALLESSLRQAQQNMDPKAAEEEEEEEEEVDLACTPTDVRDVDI
Sequence of NTRK2 (Q16620 32-822): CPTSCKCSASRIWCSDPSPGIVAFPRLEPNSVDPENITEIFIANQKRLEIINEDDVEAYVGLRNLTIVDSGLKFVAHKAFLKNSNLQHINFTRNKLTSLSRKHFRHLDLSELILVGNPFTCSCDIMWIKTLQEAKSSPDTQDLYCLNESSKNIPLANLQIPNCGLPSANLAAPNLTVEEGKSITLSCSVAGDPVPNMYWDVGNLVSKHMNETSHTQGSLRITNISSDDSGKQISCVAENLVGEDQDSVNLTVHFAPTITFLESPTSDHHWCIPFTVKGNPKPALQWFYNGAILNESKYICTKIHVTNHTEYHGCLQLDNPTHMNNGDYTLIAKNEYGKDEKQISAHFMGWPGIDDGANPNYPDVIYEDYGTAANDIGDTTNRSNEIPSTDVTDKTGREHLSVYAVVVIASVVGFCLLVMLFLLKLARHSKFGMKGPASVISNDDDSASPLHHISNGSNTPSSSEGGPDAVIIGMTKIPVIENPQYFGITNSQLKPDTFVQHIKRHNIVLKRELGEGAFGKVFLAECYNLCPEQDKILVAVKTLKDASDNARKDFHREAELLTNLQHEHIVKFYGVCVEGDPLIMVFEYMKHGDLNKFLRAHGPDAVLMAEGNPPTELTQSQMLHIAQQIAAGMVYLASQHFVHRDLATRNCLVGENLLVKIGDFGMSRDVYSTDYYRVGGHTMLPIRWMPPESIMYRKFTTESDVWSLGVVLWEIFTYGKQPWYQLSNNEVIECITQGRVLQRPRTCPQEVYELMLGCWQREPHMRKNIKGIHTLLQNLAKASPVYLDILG
Sequence of BMX (P51813 whole entry): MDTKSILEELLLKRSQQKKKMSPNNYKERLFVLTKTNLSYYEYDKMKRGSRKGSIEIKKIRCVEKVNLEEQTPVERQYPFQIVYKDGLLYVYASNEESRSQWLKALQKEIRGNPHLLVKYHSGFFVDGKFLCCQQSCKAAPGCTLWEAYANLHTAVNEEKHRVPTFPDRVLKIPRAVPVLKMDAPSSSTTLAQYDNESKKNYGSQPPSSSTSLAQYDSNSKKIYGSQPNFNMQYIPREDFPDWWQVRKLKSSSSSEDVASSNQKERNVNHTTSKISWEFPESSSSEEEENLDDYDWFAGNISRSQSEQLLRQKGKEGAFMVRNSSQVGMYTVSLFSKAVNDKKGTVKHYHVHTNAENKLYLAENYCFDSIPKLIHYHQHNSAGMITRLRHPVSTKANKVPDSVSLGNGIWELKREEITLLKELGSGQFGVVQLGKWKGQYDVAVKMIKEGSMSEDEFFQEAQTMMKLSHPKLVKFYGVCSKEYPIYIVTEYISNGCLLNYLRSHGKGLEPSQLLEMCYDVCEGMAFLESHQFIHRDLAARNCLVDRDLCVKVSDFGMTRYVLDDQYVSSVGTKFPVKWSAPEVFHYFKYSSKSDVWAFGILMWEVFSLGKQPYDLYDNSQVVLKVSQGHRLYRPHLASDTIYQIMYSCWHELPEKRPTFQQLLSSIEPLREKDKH
Sequence of LRRK2 (Q5S007 whole entry): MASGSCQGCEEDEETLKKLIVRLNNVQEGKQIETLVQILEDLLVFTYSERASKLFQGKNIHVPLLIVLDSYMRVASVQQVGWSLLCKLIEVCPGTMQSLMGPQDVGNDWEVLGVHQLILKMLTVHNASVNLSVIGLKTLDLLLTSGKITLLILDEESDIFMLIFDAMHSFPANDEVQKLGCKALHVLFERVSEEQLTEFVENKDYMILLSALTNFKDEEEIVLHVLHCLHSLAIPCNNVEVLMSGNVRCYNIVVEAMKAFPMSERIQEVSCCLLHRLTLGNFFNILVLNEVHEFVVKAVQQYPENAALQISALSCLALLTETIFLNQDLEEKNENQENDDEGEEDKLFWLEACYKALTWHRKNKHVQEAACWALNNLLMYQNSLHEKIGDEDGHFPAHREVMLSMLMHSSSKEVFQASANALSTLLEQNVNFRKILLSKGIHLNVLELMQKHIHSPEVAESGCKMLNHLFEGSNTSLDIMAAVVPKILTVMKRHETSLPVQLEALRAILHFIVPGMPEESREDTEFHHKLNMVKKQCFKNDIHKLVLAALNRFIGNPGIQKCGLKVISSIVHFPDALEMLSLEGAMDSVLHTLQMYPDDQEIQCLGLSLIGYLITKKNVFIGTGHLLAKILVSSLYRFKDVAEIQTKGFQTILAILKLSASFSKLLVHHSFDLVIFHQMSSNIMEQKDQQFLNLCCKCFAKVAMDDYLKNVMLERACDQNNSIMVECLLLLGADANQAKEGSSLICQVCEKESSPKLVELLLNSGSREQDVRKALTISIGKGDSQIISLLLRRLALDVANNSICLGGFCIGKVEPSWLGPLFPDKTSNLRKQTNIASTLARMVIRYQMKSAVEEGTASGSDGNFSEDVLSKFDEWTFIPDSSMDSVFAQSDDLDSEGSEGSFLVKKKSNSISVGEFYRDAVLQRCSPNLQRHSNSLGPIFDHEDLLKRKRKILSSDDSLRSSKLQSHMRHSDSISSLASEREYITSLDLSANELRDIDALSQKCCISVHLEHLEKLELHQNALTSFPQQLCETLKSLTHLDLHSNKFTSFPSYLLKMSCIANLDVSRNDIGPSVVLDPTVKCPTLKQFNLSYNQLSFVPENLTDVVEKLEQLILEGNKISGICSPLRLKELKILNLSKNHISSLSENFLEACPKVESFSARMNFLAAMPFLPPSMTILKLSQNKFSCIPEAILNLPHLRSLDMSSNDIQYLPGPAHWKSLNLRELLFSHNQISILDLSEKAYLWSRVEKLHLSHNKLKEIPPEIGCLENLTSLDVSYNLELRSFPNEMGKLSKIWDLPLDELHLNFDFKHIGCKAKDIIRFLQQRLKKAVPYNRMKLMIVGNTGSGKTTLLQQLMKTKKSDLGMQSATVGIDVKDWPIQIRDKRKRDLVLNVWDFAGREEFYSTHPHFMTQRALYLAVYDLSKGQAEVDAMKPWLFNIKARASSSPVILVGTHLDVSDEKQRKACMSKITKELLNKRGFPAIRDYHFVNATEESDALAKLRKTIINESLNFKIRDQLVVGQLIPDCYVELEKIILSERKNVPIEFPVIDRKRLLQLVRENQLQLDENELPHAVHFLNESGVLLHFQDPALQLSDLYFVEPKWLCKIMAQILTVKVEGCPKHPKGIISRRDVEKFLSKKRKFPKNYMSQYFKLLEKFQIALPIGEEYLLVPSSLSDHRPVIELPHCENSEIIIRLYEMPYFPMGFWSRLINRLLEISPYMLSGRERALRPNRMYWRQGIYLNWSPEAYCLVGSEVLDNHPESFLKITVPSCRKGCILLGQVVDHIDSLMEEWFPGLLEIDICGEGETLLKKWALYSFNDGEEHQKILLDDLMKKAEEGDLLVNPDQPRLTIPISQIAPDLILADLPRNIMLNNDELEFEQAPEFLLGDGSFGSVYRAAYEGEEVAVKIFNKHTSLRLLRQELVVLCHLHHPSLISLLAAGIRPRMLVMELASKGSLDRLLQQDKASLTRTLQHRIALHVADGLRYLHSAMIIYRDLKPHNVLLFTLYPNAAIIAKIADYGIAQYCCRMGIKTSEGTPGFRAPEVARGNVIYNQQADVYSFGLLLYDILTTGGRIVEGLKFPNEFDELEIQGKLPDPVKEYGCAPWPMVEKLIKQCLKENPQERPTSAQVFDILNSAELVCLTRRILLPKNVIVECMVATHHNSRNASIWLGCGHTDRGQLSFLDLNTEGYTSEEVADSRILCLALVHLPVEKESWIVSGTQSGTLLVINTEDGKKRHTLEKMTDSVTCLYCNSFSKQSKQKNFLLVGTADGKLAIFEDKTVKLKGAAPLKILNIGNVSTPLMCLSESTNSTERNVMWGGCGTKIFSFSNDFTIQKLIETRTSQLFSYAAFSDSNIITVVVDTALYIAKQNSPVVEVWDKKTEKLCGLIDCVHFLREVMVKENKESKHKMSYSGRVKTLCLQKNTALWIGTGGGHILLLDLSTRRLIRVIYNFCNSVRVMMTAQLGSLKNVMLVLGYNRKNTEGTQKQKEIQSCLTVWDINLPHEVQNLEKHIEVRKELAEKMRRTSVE

CN1C(=O)[C@@H](N2CCc3c(nn(Cc4ccccc4)c3C(N)=O)C2=O)COc2cc(Cl)ccc21 [Compound 10, (S)-2-benzyl-6-(8-chloro-5-methyl-4-oxo-2,3,4,5-tetrahydrobenzo[b][1,4]oxazepin-3-yl)-7-oxo-4,5,6,7-tetrahydro-2H-pyrazolo[3,4-c]pyridine-3-carboxamide]
receptor occupancy at 1 µM (NEK3): -12% | receptor occupancy at 1 µM (CHEK2): -1.73% | receptor occupancy at 1 µM (CDK9): -4.57% | receptor occupancy at 1 µM (LRRK2): 7.3% | receptor occupancy at 1 µM (TEC): -0.614% | receptor occupancy at 1 µM (DCLK3): 2.41% | receptor occupancy at 1 µM (SBK3): -4.46% | receptor occupancy at 1 µM (PTK2): -12.2% | receptor occupancy at 1 µM (BMX): -3.33% | receptor occupancy at 1 µM (CSNK1D): 0.69% | receptor occupancy at 1 µM (PLK2): 2.74% | receptor occupancy at 1 µM (PRKACB): 0.396% | receptor occupancy at 1 µM (AKT2): -1.95% | receptor occupancy at 1 µM (CDK6): -16.9% | receptor occupancy at 1 µM (EPHA4): -5.78% | receptor occupancy at 1 µM (STK38L): 7.45% | receptor occupancy at 1 µM (MYLK3): 3.25% | receptor occupancy at 1 µM (RPS6KA2): -4.28% | receptor occupancy at 1 µM (MAP3K11): -27.3% | receptor occupancy at 1 µM (STK4): -6.3% | receptor occupancy at 1 µM (CDK15): -12.8% | receptor occupancy at 1 µM (MAP3K12): -2.26% | receptor occupancy at 1 µM (MAST4): -4.29% | receptor occupancy at 1 µM (IKBKE): 6.88% | receptor occupancy at 1 µM (MAP4K1): 3.49% | receptor occupancy at 1 µM (STK33): 3.58% | receptor occupancy at 1 µM (NTRK2): 1.19% | receptor occupancy at 1 µM (SIK3 FL): -5.87% | receptor occupancy at 1 µM (CDKL5): 1.05% | receptor occupancy at 1 µM (ULK1): 4.3% | receptor occupancy at 1 µM (MAP3K10): 3.06% | receptor occupancy at 1 µM (ULK3): 1.52% | receptor occupancy at 1 µM (MAPK8): -11.5% | receptor occupancy at 1 µM (AAK1): 0.814% | receptor occupancy at 1 µM (PRKAA1): -3.79% | receptor occupancy at 1 µM (DYRK1A): -1.01% | receptor occupancy at 1 µM (EPHA7): -2.24%
